Assay results: patent US20080261994A1, “CYCLOPROPANE COMPOUNDS AND PHARMACEUTICAL USE THEREOF” (Japan Tobacco Inc., priority 2003, published 2008)
Where a name gives a salt, the structure may show the parent alone. Read-outs that look alike come from different tables or passages of the source.

What was measured:
Type in all cases: biochemical
[1] = target: T1, aggrecanase-1 (Homo sapiens, UniProt O75173); experiment: Aggrecanase-1 inhibitory action (Particle Assay, GAG release from aggrecan-containing polyacrylamide particles)
T1 sequence (O75173 213-837): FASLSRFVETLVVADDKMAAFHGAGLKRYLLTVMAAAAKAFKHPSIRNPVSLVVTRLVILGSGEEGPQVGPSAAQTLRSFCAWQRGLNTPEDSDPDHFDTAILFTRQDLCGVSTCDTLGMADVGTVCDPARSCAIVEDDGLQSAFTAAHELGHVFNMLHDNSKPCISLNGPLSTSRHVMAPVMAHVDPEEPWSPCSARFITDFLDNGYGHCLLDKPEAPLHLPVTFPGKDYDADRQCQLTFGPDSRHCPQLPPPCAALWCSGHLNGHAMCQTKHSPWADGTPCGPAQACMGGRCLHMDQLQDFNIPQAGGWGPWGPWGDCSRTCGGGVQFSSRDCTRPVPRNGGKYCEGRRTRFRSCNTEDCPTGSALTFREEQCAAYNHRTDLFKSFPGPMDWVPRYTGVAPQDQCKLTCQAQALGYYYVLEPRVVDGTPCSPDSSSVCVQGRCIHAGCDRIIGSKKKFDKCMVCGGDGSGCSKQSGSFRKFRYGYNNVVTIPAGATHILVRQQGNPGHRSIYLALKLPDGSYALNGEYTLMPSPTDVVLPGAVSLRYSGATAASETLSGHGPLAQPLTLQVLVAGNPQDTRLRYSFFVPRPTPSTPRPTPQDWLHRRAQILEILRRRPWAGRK
Method in brief: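 Readout was dimethylmethylene blue absorbance (595 nm) of glycosaminoglycan liberated into supernatant, calibrated with whale chondroitin sulfate. Substrate was aggrecan in polyacrylamide particles, digested 15 h at 37° C in Tris-HCl; TC50 (μM) derived from inhibition relative to no-enzyme and no-inhibitor controls.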

[2] = target: T2, MMP-1 (Homo sapiens, UniProt P03956); experiment: MMP-1 inhibitory action (Type I collagen Activity Measurement kit, FITC-labeled collagen type I)
T2 sequence (P03956 100-469): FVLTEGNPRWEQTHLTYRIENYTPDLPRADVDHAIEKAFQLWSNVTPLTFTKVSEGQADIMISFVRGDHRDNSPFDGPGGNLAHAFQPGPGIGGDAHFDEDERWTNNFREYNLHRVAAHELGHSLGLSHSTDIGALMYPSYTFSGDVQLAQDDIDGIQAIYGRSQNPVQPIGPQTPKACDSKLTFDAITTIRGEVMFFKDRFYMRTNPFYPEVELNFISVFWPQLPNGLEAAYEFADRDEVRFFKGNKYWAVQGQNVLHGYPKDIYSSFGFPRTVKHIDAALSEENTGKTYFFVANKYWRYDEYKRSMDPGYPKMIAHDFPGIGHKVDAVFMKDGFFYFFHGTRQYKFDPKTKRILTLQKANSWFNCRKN

[3] = target: T3, Recombinant Human MMP-13 (Homo sapiens, UniProt P45452); experiment: MMP-13 inhibitory activity (MMP-13 specific fluorescent substrate with quencher)
T3 construct: purchased R&D systems 511-MM
Method in brief: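 IC50 (μM) derived from % inhibition, normalised to wells without enzyme and without inhibitor, fluorescence read at 325/405 nm. Enzyme and compound preceded addition of the quenched 7-MCA…DPA substrate; Tris-HCl buffer, 25 °C for 1 h, acetic-acid stop.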

[4] = Experimental Example 1, read-out: IC50 AG1
[5] = Experimental Example 2, read-out: IC50 MMP1
[6] = Experimental Example 3, read-out: IC50 MMP13
[7] = aggrecanase-1 inhibitory action, read-out: IC50 AG1 (Experimental Example 1)
[8] = MMP-1 inhibitory action, FITC-labeled collagen type I, 37° C. for 3 hr, read-out: IC50 MMP1 (Experimental Example 2)
[9] = Recombinant Human MMP-13, fluorescent substrate, 25° C. for 1 h, read-out: IC50 MMP13 (Experimental Example 3)

IC50 [1, 4] [µM] | IC50 [2, 5] [µM] | IC50 [3, 6] [µM] | IC50 [1, 7] [µM] | IC50 [2, 8] [µM] | IC50 [3, 9] [µM] | Structure (SMILES)
≥ 1 | ≥ 1 | ≥ 1 |  |  |  | C[C@]1(c2ccccc2)C[C@@]1(NS(=O)(=O)c1ccc(/C=C\C(F)(F)F)s1)C(=O)O [Example 2-563]
≥ 1 | ≥ 10 | < 1 |  |  |  | C[C@]1(c2ccccc2)C[C@@]1(NS(=O)(=O)c1ccc(-c2cccc(NS(C)(=O)=O)c2)s1)C(=O)O [Example 2-453]
≥ 1 | ≥ 1 | ≥ 1 |  |  |  | CC1[C@H](c2ccccc2)[C@]1(NS(=O)(=O)N1CCC(OCc2ccc(Cl)cc2Cl)C1)C(=O)O (stereo partly drawn) [Example 2-553]
 |  |  | ≥ 1 | ≥ 10 | ≥ 10 | Cc1ncc(-c2ccc(S(=O)(=O)N[C@@]3(C(=O)O)C[C@@H]3c3ccccc3)s2)s1 [Example 2-55]
 |  |  | < 1 | ≥ 1 | < 1 | CN(C)c1cccc(C2CC2(NS(=O)(=O)c2ccc(-c3cc(C(F)(F)F)on3)s2)C(=O)O)c1 (stereo not drawn) [Example 2-228]
≥ 1 | ≥ 1 | < 1 |  |  |  | CC1[C@H](c2ccccc2)[C@]1(NS(=O)(=O)N1Cc2ccc(Br)cc2C1)C(=O)O (stereo partly drawn) [Example 2-505]
 |  |  | ≥ 1 | ≥ 10 | ≥ 1 | CC(C)(O)C#Cc1ccc(S(=O)(=O)N[C@@]2(C(=O)O)C[C@@H]2c2ccccc2)s1 [Example 2-130]
 |  |  | ≥ 1 | ≥ 10 | < 0.1 | O=C(O)C1(NS(=O)(=O)c2ccc(-c3ccc(OC(F)(F)F)cc3)s2)CC1c1ccccc1 (stereo not drawn) [Example 2-17]
< 1 | ≥ 1 | < 1 |  |  |  | CN1CCN(C(=O)OCC2(c3ccccc3)CC2(NS(=O)(=O)c2ccc(-c3cc(C(F)(F)F)on3)s2)C(=O)O)CC1 (stereo not drawn) [Example 2-334]
 |  |  | ≥ 10 | ≥ 10 | ≥ 10 | O=C1CCCCN1c1ccc(S(=O)(=O)N[C@@]2(C(=O)O)C[C@@H]2c2ccccc2)s1 [Example 2-164]
 |  |  | < 0.1 | ≥ 1 | < 0.1 | O=C(OCCCc1ccccc1C1CC1(NS(=O)(=O)c1ccc(-c2cc(C(F)(F)F)on2)s1)C(=O)O)N1CCC[C@H]1CO (stereo partly drawn) [Example 2-254]
 |  |  | < 0.1 | ≥ 1 | < 0.1 | O=C(O)[C@]1(NS(=O)(=O)c2ccc(-c3ccc(Cl)cc3)s2)C[C@@H]1c1ccccc1CO [Example 2-206]
 |  |  | ≥ 10 | ≥ 10 | ≥ 10 | O=C(O)[C@]1(NS(=O)(=O)c2ccc(C3=CCNCC3)s2)C[C@@H]1c1ccccc1 [Example 2-2, (1S,2R)-2-phenyl-1-[5-(1,2,3,6-tetrahydro-pyridin-4-yl)-thiophene-2-sulfonylamino]-cyclopropanecarboxylic acid hydrochloride]
 |  |  | ≥ 1 | ≥ 10 | ≥ 10 | CC(C)(C)OC(=O)N1CC=C(c2ccc(S(=O)(=O)N[C@@]3(C(=O)O)C[C@@H]3c3ccccc3)s2)CC1 [Example 2, 4-[5-((1S,2R)-1-carboxy-2-phenyl-cyclopropanesulfamoyl)-thiophene-2-yl]-3,6-dihydro-2H-pyridin-1-carboxylic acid t-butyl ester]
 |  |  | ≥ 1 | ≥ 10 | ≥ 1 | O=C(O)[C@]1(NS(=O)(=O)c2ccc(-c3noc(C(F)(F)C(F)(F)F)n3)s2)C[C@@H]1c1ccccc1 [Example 2-45]
< 0.1 | < 1 | < 0.1 |  |  |  | O=C(O)C1(NS(=O)(=O)c2ccc(-c3cc(C(F)(F)F)on3)s2)C2CCOc3ccccc3C21 (stereo not drawn) [Example 2-370]
 |  |  | ≥ 10 | ≥ 10 | ≥ 10 | O=C(NCCC(F)(F)F)c1ccc(S(=O)(=O)NC2(C(=O)O)CC2c2ccccc2)s1 (stereo not drawn) [Example 2-97]
< 0.1 | < 0.1 | < 0.1 |  |  |  | CC(O)c1cnn(-c2ccc(S(=O)(=O)N[C@@]3(C(=O)O)C(C)[C@@H]3c3ccccc3)s2)c1 (stereo partly drawn) [Example 2-547]
< 1 | ≥ 1 | < 1 |  |  |  | COc1cc(-c2ccc(S(=O)(=O)N[C@@]3(C(=O)O)C[C@]3(C)c3ccccc3)s2)ccc1Cl [Example 2-516]

IC50 [1, 4] [µM] | IC50 [2, 5] [µM] | IC50 [3, 6] [µM] | IC50 [1, 7] [µM] | IC50 [2, 8] [µM] | IC50 [3, 9] [µM] | Structure (SMILES)
 |  |  | < 1 | ≥ 1 | < 1 | O=C(O)C1(NS(=O)(=O)c2ccc(-c3ccc(Cl)c(Cl)c3)s2)CC1c1ccccc1 (stereo not drawn) [Example 2-18]
< 1 | ≥ 1 | < 1 |  |  |  | C[C@]1(c2ccccc2)C[C@@]1(NS(=O)(=O)c1ccc(-c2ccc3c(c2)OC(F)(F)O3)s1)C(=O)O [Example 2-544]
 |  |  | < 1 | ≥ 10 | < 1 | O=C(O)C1(NS(=O)(=O)c2ccc(-c3ccc(Cl)cc3)s2)CC1c1ccccc1CN1CCOCC1 (stereo not drawn) [Example 2-91]
< 0.1 | ≥ 10 | < 1 |  |  |  | O=C(NO)C1(NS(=O)(=O)c2ccc(OCc3ccc(Cl)cc3Cl)cc2)C2CCc3ccccc3C21 (stereo not drawn) [Example 2-360]
 |  |  | < 0.1 | ≥ 10 | < 0.1 | O=C(O)[C@]1(NS(=O)(=O)c2ccc(-c3ccc(Cl)cc3)s2)C[C@@H]1c1cccc([N+](=O)[O-])c1 [Example 2-170]
 |  |  | < 0.1 | ≥ 1 | < 0.1 | O=C(O)[C@]1(NS(=O)(=O)c2ccc(-c3ccc(Cl)cn3)s2)C[C@@H]1c1ccccc1 [Example 1-131]
 |  |  | < 0.1 | < 1 | < 0.1 | C[C@]1(c2ccccc2)C[C@@]1(NS(=O)(=O)c1ccc2c(c1)Cc1cc(Br)ccc1-2)C(=O)O [Example 2-100]
 |  |  | < 1 | ≥ 1 | < 0.1 | O=C(O)C1(NS(=O)(=O)c2ccc(-c3cc(C(F)(F)F)on3)s2)CC1c1cccc(CCCO)c1 (stereo not drawn) [Example 2-236]
 |  |  | < 1 | ≥ 1 | < 1 | O=C(c1cccc(C2CC2(NS(=O)(=O)c2ccc(-c3cc(C(F)(F)F)on3)s2)C(=O)O)c1)N1CCOCC1 (stereo not drawn) [Example 2-258]
 |  |  | < 0.1 | ≥ 10 | < 0.1 | O=C(O)C1(NS(=O)(=O)c2ccc(-c3ccc(Cl)cc3)s2)CC1c1cccc(CNc2cccnc2)c1 (stereo not drawn) [Example 2-32]
 |  |  | ≥ 1 | ≥ 10 | ≥ 1 | CC(=O)c1ccc(S(=O)(=O)NC2(C(=O)O)CC2c2ccccc2)s1 (stereo not drawn) [Example 2-66]
 |  |  | ≥ 1 | ≥ 10 | < 1 | O=C(O)C1(NS(=O)(=O)c2ccc(-c3ccc(Cl)cc3)s2)CC1Cn1nnc2ccccc2c1=O (stereo not drawn) [Example 2-47]
< 1 | ≥ 1 | < 0.1 |  |  |  | CC1C(c2ccccc2)C1(NS(=O)(=O)c1ccc(-c2cccc(O)c2)s1)C(=O)O (stereo not drawn) [Example 2-509]
< 1 | < 1 | < 0.1 |  |  |  | CN(C)c1cc(-c2ccc(S(=O)(=O)N[C@@]3(C(=O)O)C[C@]3(C)c3ccccc3)s2)no1 [Example 2-423]
≥ 1 | ≥ 10 | ≥ 1 |  |  |  | CNC(=O)[C@]1(NS(=O)(=O)c2ccc(-c3cc(C(F)(F)F)on3)s2)C(C)[C@@H]1c1ccccc1 (stereo partly drawn) [Example 2-297]
 |  |  | < 1 | ≥ 1 | < 0.1 | O=C(CN1CCOCC1)Nc1cccc(C2CC2(NS(=O)(=O)c2ccc(-c3cc(C(F)(F)F)on3)s2)C(=O)O)c1 (stereo not drawn) [Example 2-260]
< 1 | < 1 | < 0.1 |  |  |  | O=C(NO)C1(NS(=O)(=O)c2ccc(-c3ccc(Cl)cc3)s2)C2Cc3ccccc3C21 (stereo not drawn) [Example 2-447]
 |  |  | ≥ 10 | ≥ 10 | ≥ 10 | Cc1ncc(-c2ccc(S(=O)(=O)NC3(C(=O)O)CC3c3ccccc3)s2)o1 (stereo not drawn) [Example 2-79]
< 0.1 | < 1 | < 0.1 |  |  |  | O=C(O)C1(NS(=O)(=O)c2ccc(-c3cc(C(F)(F)F)on3)s2)C2CCc3ccccc3C21 (stereo not drawn) [Example 2-351]
